# Laboratory results published in ChEMBL document CHEMBL3826948, “Alkyl substituted aminal derivatives of HCV NS5A inhibitor MK-8742” (Bioorg Med Chem Lett, 2016).
# pEC50: −log10 of the molar value.
# Assays:
# Conditions in all cases: Hepatitis C virus
# [1] = Inhibition of NS5A in HCV genotype 2b assessed as replicon RNA levels by real time PCR based cell based assay; parameters: species or system Hepatitis C virus subtype 2b
# [2] = Inhibition of NS5A in HCV genotype 1a assessed as replicon RNA levels by real time PCR based cell based assay; parameters: species or system Hepatitis C virus subtype 1a
# [3] = Inhibition of NS5A in HCV genotype 3a assessed as replicon RNA levels by real time PCR based cell based assay; parameters: species or system Hepatitis C virus subtype 3a
# [4] = Inhibition of NS5A in HCV genotype 2a assessed as replicon RNA levels by real time PCR based cell based assay; parameters: species or system Hepatitis C virus subtype 2a
# [5] = Inhibition of NS5A in HCV genotype 4a assessed as replicon RNA levels by real time PCR based cell based assay; parameters: species or system Hepatitis C virus subtype 4a
# [6] = Inhibition of NS5A in HCV genotype 1b assessed as replicon RNA levels by real time PCR based cell based assay; parameters: species or system Hepatitis C virus subtype 1b
pEC50 [1],pEC50 [2],pEC50 [3],pEC50 [4],pEC50 [5],pEC50 [6],Structure (SMILES)
8.10,11.30,10.22,–,–,–,COC(=O)N[C@H](C(=O)N1CCC[C@H]1c1ncc(-c2cc(F)c3c(c2)OC(C2CC2C#N)n2c-3cc3cc(-c4cnc([C@@H]5CCCN5C(=O)[C@@H](NC(=O)OC)C(C)C)[nH]4)ccc32)[nH]1)C(C)C (stereo partly drawn)
6.28,8.10,6.69,–,–,–,COC(=O)N[C@H](C(=O)N1CCC[C@H]1c1ncc(-c2cc(F)c3c(c2)OC(C2CC2C(=O)O)n2c-3cc3cc(-c4cnc([C@@H]5CCCN5C(=O)[C@@H](NC(=O)OC)C(C)C)[nH]4)ccc32)[nH]1)C(C)C (stereo partly drawn)
7.28,9.00,8.00,–,–,–,CNC(=O)C1CC1C1Oc2cc(-c3cnc([C@@H]4CCCN4C(=O)[C@@H](NC(=O)OC)C(C)C)[nH]3)cc(F)c2-c2cc3cc(-c4cnc([C@@H]5CCCN5C(=O)[C@@H](NC(=O)OC)C(C)C)[nH]4)ccc3n21 (stereo partly drawn)
7.92,12.00,9.70,11.00,10.70,12.00,CCCCCCC1Oc2cc(-c3cnc([C@@H]4CCCN4C(=O)[C@@H](NC(=O)OC)C(C)C)[nH]3)ccc2-c2cc3cc(-c4cnc([C@@H]5CCCN5C(=O)[C@@H](NC(=O)OC)C(C)C)[nH]4)ccc3n21 (stereo partly drawn)
8.70,11.22,10.05,–,–,–,COC(=O)N[C@H](C(=O)N1CCC[C@H]1c1ncc(-c2cc(F)c3c(c2)OC(C2CC2C)n2c-3cc3cc(-c4cnc([C@@H]5CCCN5C(=O)[C@@H](NC(=O)OC)C(C)C)[nH]4)ccc32)[nH]1)C(C)C (stereo partly drawn)
8.22,11.70,9.10,11.00,10.70,11.70,COC(=O)N[C@H](C(=O)N1CCC[C@H]1c1ncc(-c2ccc3c(c2)OC(C(C)C)n2c-3cc3cc(-c4cnc([C@@H]5CCCN5C(=O)[C@@H](NC(=O)OC)C(C)C)[nH]4)ccc32)[nH]1)C(C)C (stereo partly drawn)
7.23,11.30,8.52,11.40,10.40,11.70,COC(=O)N[C@H](C(=O)N1CCC[C@H]1c1ncc(-c2ccc3c(c2)cc2n3C3(CCCC3)Oc3cc(-c4cnc([C@@H]5C[C@@H](F)CN5C(=O)[C@@H](NC(=O)OC)C(C)C)[nH]4)cc(F)c3-2)[nH]1)C(C)C
8.40,11.30,10.52,–,–,–,COC(=O)N[C@H](C(=O)N1CCC[C@H]1c1ncc(-c2cc(F)c3c(c2)OC([C@H]2C[C@@H]2c2ccccc2)n2c-3cc3cc(-c4cnc([C@@H]5CCCN5C(=O)[C@@H](NC(=O)OC)C(C)C)[nH]4)ccc32)[nH]1)C(C)C (stereo partly drawn)
7.02,11.10,8.22,9.70,9.70,12.00,COC(=O)N[C@H](C(=O)N1CCC[C@H]1c1ncc(-c2ccc3c(c2)cc2n3C3(CCCCC3)Oc3cc(-c4cnc([C@@H]5C[C@@H](F)CN5C(=O)[C@@H](NC(=O)OC)C(C)C)[nH]4)cc(F)c3-2)[nH]1)C(C)C
8.40,11.70,9.70,11.15,11.30,11.70,CCCCC1Oc2cc(-c3cnc([C@@H]4CCCN4C(=O)[C@@H](NC(=O)OC)C(C)C)[nH]3)ccc2-c2cc3cc(-c4cnc([C@@H]5CCCN5C(=O)[C@@H](NC(=O)OC)C(C)C)[nH]4)ccc3n21 (stereo partly drawn)
8.10,10.52,9.00,–,–,–,COC(=O)N[C@H](C(=O)N1CCC[C@H]1c1ncc(-c2ccc3c(c2)OC(CCC#N)n2c-3cc3cc(-c4cnc([C@@H]5CCCN5C(=O)[C@@H](NC(=O)OC)C(C)C)[nH]4)ccc32)[nH]1)C(C)C (mixture of isomers)
8.70,10.70,< 7.77,–,–,–,CCCCCC1CC2CCC1CC2C1Oc2cc(-c3cnc([C@@H]4CCCN4C(=O)[C@@H](NC(=O)OC)C(C)C)[nH]3)ccc2-c2cc3cc(-c4cnc([C@@H]5CCCN5C(=O)[C@@H](NC(=O)OC)C(C)C)[nH]4)ccc3n21 (mixture of isomers)
–,–,–,8.40,–,–,COC(=O)N[C@H](C(=O)N1CCC[C@H]1c1ncc(-c2ccc3c(c2)OC(CC2CCCC2)n2c-3cc3cc(-c4cnc([C@@H]5CCCN5C(=O)[C@@H](NC(=O)OC)C(C)C)[nH]4)ccc32)[nH]1)C(C)C (mixture of isomers)
–,11.22,8.52,10.05,10.40,11.70,COC(=O)N[C@H](C(=O)N1CCC[C@H]1c1ncc(-c2ccc3c(c2)OC(CC2CCCCC2)n2c-3cc3cc(-c4cnc([C@@H]5CCCN5C(=O)[C@@H](NC(=O)OC)C(C)C)[nH]4)ccc32)[nH]1)C(C)C (mixture of isomers)
8.05,11.00,–,–,–,11.00,COC(=O)N[C@H](C(=O)N1CCC[C@H]1c1ncc(-c2ccc3c(c2)OC(CC2CC2)n2c-3cc3cc(-c4cnc([C@@H]5CCCN5C(=O)[C@@H](NC(=O)OC)C(C)C)[nH]4)ccc32)[nH]1)C(C)C (mixture of isomers)

# More lines, now with the values behind:
Structure (SMILES),pEC50 [1],pEC50 [2],pEC50 [3],pEC50 [4],pEC50 [5],pEC50 [6]
COC(=O)N[C@H](C(=O)N1CCC[C@H]1c1ncc(-c2ccc3c(c2)OC(CC(C)(C)C)n2c-3cc3cc(-c4cnc([C@@H]5CCCN5C(=O)[C@@H](NC(=O)OC)C(C)C)[nH]4)ccc32)[nH]1)C(C)C (stereo partly drawn),7.14,11.40,8.15,9.00,10.70,11.70
COC(=O)N[C@H](C(=O)N1CCC[C@H]1c1ncc(-c2ccc3c(c2)cc2n3C3(CCC3)Oc3cc(-c4cnc([C@@H]5C[C@@H](F)CN5C(=O)[C@@H](NC(=O)OC)C(C)C)[nH]4)cc(F)c3-2)[nH]1)C(C)C,7.36,11.70,9.22,10.52,10.40,12.30
COC(=O)N[C@H](C(=O)N1CCC[C@H]1c1ncc(-c2ccc3c(c2)OC(C2CCCC2)n2c-3cc3cc(-c4cnc([C@@H]5CCCN5C(=O)[C@@H](NC(=O)OC)C(C)C)[nH]4)ccc32)[nH]1)C(C)C (stereo partly drawn),8.70,11.70,9.52,10.15,11.30,11.52
COC(=O)N[C@H](C(=O)N1CCC[C@H]1c1ncc(-c2ccc3c(c2)OC(C2CCC4(CC2)CC4)n2c-3cc3cc(-c4cnc([C@@H]5CCCN5C(=O)[C@@H](NC(=O)OC)C(C)C)[nH]4)ccc32)[nH]1)C(C)C (stereo partly drawn),8.70,> 10.70,9.22,> 9.70,> 9.70,10.70
CCCC1Oc2cc(-c3cnc([C@@H]4CCCN4C(=O)[C@@H](NC(=O)OC)C(C)C)[nH]3)ccc2-c2cc3cc(-c4cnc([C@@H]5CCCN5C(=O)[C@@H](NC(=O)OC)C(C)C)[nH]4)ccc3n21 (stereo partly drawn),8.52,11.52,9.52,11.52,10.70,11.70
COC(=O)N[C@H](C(=O)N1CCC[C@H]1c1ncc(-c2cc(F)c3c(c2)OC(C2CC24CCCC4)n2c-3cc3cc(-c4cnc([C@@H]5CCCN5C(=O)[C@@H](NC(=O)OC)C(C)C)[nH]4)ccc32)[nH]1)C(C)C (stereo partly drawn),< 7.77,11.22,< 7.77,–,–,–
COC(=O)N[C@H](C(=O)N1CCC[C@H]1c1ncc(-c2cc(F)c3c(c2)OC(C2CC2C(=O)N(C)C)n2c-3cc3cc(-c4cnc([C@@H]5CCCN5C(=O)[C@@H](NC(=O)OC)C(C)C)[nH]4)ccc32)[nH]1)C(C)C (stereo partly drawn),8.05,10.00,8.40,–,–,–
COCC1CC1C1Oc2cc(-c3cnc([C@@H]4CCCN4C(=O)[C@@H](NC(=O)OC)C(C)C)[nH]3)cc(F)c2-c2cc3cc(-c4cnc([C@@H]5CCCN5C(=O)[C@@H](NC(=O)OC)C(C)C)[nH]4)ccc3n21 (stereo partly drawn),8.40,11.05,9.15,–,–,–
COC(=O)N[C@H](C(=O)N1CCC[C@H]1c1ncc(-c2ccc3c(c2)OC(C2CCCCC2)n2c-3cc3cc(-c4cnc([C@@H]5CCCN5C(=O)[C@@H](NC(=O)OC)C(C)C)[nH]4)ccc32)[nH]1)C(C)C (stereo partly drawn),9.00,11.30,9.10,11.52,10.40,11.70
COC(=O)N[C@H](C(=O)N1CCC[C@H]1c1ncc(-c2cc(F)c3c(c2)OC(C2CC2(C)C)n2c-3cc3cc(-c4cnc([C@@H]5CCCN5C(=O)[C@@H](NC(=O)OC)C(C)C)[nH]4)ccc32)[nH]1)C(C)C (stereo partly drawn),–,10.52,–,–,–,–
COC(=O)N[C@H](C(=O)N1CCC[C@H]1c1ncc(-c2ccc3c(c2)OC(CC(F)(F)F)n2c-3cc3cc(-c4cnc([C@@H]5CCCN5C(=O)[C@@H](NC(=O)OC)C(C)C)[nH]4)ccc32)[nH]1)C(C)C (mixture of isomers),8.30,11.22,9.52,10.70,10.70,11.70
COC(=O)N[C@H](C(=O)N1CCC[C@H]1c1ncc(-c2ccc3c(c2)OC(CCC(=O)O)n2c-3cc3cc(-c4cnc([C@@H]5CCCN5C(=O)[C@@H](NC(=O)OC)C(C)C)[nH]4)ccc32)[nH]1)C(C)C (mixture of isomers),6.91,8.10,7.48,–,–,–
COC(=O)CCC1Oc2cc(-c3cnc([C@@H]4CCCN4C(=O)[C@@H](NC(=O)OC)C(C)C)[nH]3)ccc2-c2cc3cc(-c4cnc([C@@H]5CCCN5C(=O)[C@@H](NC(=O)OC)C(C)C)[nH]4)ccc3n21 (mixture of isomers),8.05,10.70,8.40,–,–,–
COC(=O)N[C@H](C(=O)N1CCC[C@H]1c1ncc(-c2ccc3c(c2)OC(C2CCOCC2)n2c-3cc3cc(-c4cnc([C@@H]5CCCN5C(=O)[C@@H](NC(=O)OC)C(C)C)[nH]4)ccc32)[nH]1)C(C)C (mixture of isomers),–,11.05,9.10,10.52,10.40,11.40
